Assay results taken from ChEMBL document CHEMBL5724914, “Linking interpersonal differences in gut microbiota composition and drug biotransformation activity” (2024).

Tests used:
[1] = (§1) The drug is tested on WLS-038 corresponding to human gut metagenome with ENA study accession number: PRJEB37062 and ENA sample accession number: ERS12561745 for biotransformation under anaerobic condition. The drug concentrations were measured over 9 timepoints collected between 0 and 24 hours of incubation by liquid-chromatography-coupled mass spectrometry (LC–MS); settings: 2 µM
[2] = human gut metagenome, 24 h, 2 µM
[3] = as §1, with “Z-004” for “WLS-038”, “to” for “to human gut”, “ERS12561804” for “ERS12561745”; settings: 2 µM
[4] = as §1, with “Z-003” for “WLS-038”, “pig” for “human”, “ERS12561803” for “ERS12561745”; settings: 2 µM
[5] = human gut metagenome, 24 h, 2 µM; remark: listed apart in the source
[6] = human gut metagenome, 24 h, 2 µM; remark: listed apart in the source
[7] = as §1, with “WLS-077” for “WLS-038”, “ERS12561750” for “ERS12561745”; settings: 2 µM
[8] = as §1, with “Z-025” for “WLS-038”, “rabbit” for “human”, “ERS12561824” for “ERS12561745”; settings: 2 µM
[9] = as §1, with “Z-008” for “WLS-038”, “to” for “to human gut”, “ERS12561808” for “ERS12561745”; settings: 2 µM
[10] = human gut metagenome, 24 h, 2 µM; remark: listed apart in the source
[11] = as §1, with “WLS-350” for “WLS-038”, “ERS12561789” for “ERS12561745”; settings: 2 µM
[12] = as §1, with “WLS-240” for “WLS-038”, “ERS12561773” for “ERS12561745”; settings: 2 µM
[13] = as §1, with “Z-016” for “WLS-038”, “mouse” for “human”, “ERS12561815” for “ERS12561745”; settings: 2 µM
[14] = human gut metagenome, 24 h, 2 µM; remark: listed apart in the source
[15] = human gut metagenome, 24 h, 2 µM; remark: listed apart in the source
[16] = human gut metagenome, 24 h, 2 µM; remark: listed apart in the source
[17] = as §1, with “Z-022” for “WLS-038”, “mouse” for “human”, “ERS12561821” for “ERS12561745”; settings: 2 µM
[18] = human gut metagenome, 24 h, 2 µM; remark: listed apart in the source
[19] = human gut metagenome, 24 h, 2 µM; remark: listed apart in the source
[20] = human gut metagenome, 24 h, 2 µM; remark: listed apart in the source
Further: call rule not given here.

Structure (SMILES): CC(C)(C)N.CCC[C@H](N[C@@H](C)C(=O)N1[C@H](C(=O)O)C[C@@H]2CCCC[C@@H]21)C(=O)OCC [PERINDOPRIL ERBUMINE]
- Bacterial Biotransformation [1]: Compound NOT metabolized
- Bacterial Biotransformation [2]: Compound metabolized
- Bacterial Biotransformation [3]: Compound metabolized
- Bacterial Biotransformation [4]: Compound metabolized
- Bacterial Biotransformation [5]: Compound NOT metabolized
- Bacterial Biotransformation [6]: Compound NOT metabolized
- Bacterial Biotransformation [7]: Compound NOT metabolized
- Bacterial Biotransformation [8]: Compound NOT metabolized
- Bacterial Biotransformation [9]: Compound NOT metabolized
- Bacterial Biotransformation [10]: Compound metabolized
- Bacterial Biotransformation [11]: Compound metabolized
- Bacterial Biotransformation [12]: Compound metabolized
- Bacterial Biotransformation [13]: Compound NOT metabolized
- Bacterial Biotransformation [14]: Compound metabolized
- Bacterial Biotransformation [15]: Compound metabolized
- Bacterial Biotransformation [16]: Compound metabolized
- Bacterial Biotransformation [17]: Compound metabolized
- Bacterial Biotransformation [18]: Compound metabolized
- Bacterial Biotransformation [19]: Compound metabolized
- Bacterial Biotransformation [20]: Compound metabolized

Structure (SMILES): COc1cc(NC(C)CCCN)c2ncccc2c1.O=P(O)(O)O.O=P(O)(O)O (stereo not given) [PRIMAQUINE PHOSPHATE]
- Bacterial Biotransformation [1]: Compound NOT metabolized
- Bacterial Biotransformation [2]: Compound NOT metabolized
- Bacterial Biotransformation [3]: Compound NOT metabolized
- Bacterial Biotransformation [4]: Compound NOT metabolized
- Bacterial Biotransformation [5]: Compound NOT metabolized
- Bacterial Biotransformation [6]: Compound metabolized
- Bacterial Biotransformation [7]: Compound NOT metabolized
- Bacterial Biotransformation [8]: Compound metabolized
- Bacterial Biotransformation [9]: Compound NOT metabolized
- Bacterial Biotransformation [10]: Compound metabolized
- Bacterial Biotransformation [11]: Compound NOT metabolized
- Bacterial Biotransformation [12]: Compound metabolized
- Bacterial Biotransformation [13]: Compound metabolized
- Bacterial Biotransformation [14]: Compound metabolized
- Bacterial Biotransformation [15]: Compound NOT metabolized
- Bacterial Biotransformation [16]: Compound NOT metabolized
- Bacterial Biotransformation [17]: Compound NOT metabolized
- Bacterial Biotransformation [18]: Compound NOT metabolized
- Bacterial Biotransformation [19]: Compound NOT metabolized
- Bacterial Biotransformation [20]: Compound metabolized

Structure (SMILES): C=C[C@H]1CN2CC[C@H]1C[C@H]2[C@H](O)c1ccnc2ccc(OC)cc12.C=C[C@H]1CN2CC[C@H]1C[C@H]2[C@H](O)c1ccnc2ccc(OC)cc12.O.O.O=S(=O)(O)O [QUININE SULFATE]
- Bacterial Biotransformation [1]: Compound NOT metabolized
- Bacterial Biotransformation [2]: Compound NOT metabolized
- Bacterial Biotransformation [3]: Compound NOT metabolized
- Bacterial Biotransformation [4]: Compound NOT metabolized
- Bacterial Biotransformation [5]: Compound NOT metabolized
- Bacterial Biotransformation [6]: Compound NOT metabolized
- Bacterial Biotransformation [7]: Compound NOT metabolized
- Bacterial Biotransformation [8]: Compound NOT metabolized
- Bacterial Biotransformation [9]: Compound NOT metabolized
- Bacterial Biotransformation [10]: Compound NOT metabolized
- Bacterial Biotransformation [11]: Compound NOT metabolized
- Bacterial Biotransformation [12]: Compound metabolized
- Bacterial Biotransformation [13]: Compound NOT metabolized
- Bacterial Biotransformation [14]: Compound NOT metabolized
- Bacterial Biotransformation [15]: Compound metabolized
- Bacterial Biotransformation [16]: Compound metabolized
- Bacterial Biotransformation [17]: Compound NOT metabolized
- Bacterial Biotransformation [18]: Compound metabolized
- Bacterial Biotransformation [19]: Compound NOT metabolized
- Bacterial Biotransformation [20]: Compound metabolized
